Assay [1] deals with Callosobruchus chinensis. The assay is described as follows: Insecticidal activity against adult of Callosobruchus chinensis assessed as mortality at 5 ug/insect applied topically after 24 hr relative to control. Format: functional.
Assay [2] has as its system Callosobruchus chinensis. The assay is described as follows: Insecticidal activity against adult of Callosobruchus chinensis assessed as mortality at 1 ug/insect applied topically after 24 hr relative to control. Format: functional.
Assay [3] has as its system Callosobruchus chinensis. The assay is described as follows: Insecticidal activity against adult of Callosobruchus chinensis assessed as mortality at 0.5 ug/insect applied topically after 24 hr relative to control. It counts as functional.
Assay [4] relates to Callosobruchus chinensis. The assay is described as follows: Insecticidal activity against adult of Callosobruchus chinensis assessed as mortality at 0.1 ug/insect applied topically after 24 hr relative to control. Format: functional.
Another assay deals with Plutella xylostella. The assay is described as follows: Insecticidal activity against 2nd-instar larvae of Plutella xylostella (diamondback moth) in cabbage leaf assessed as lethality and growth inhibition at 0.1 mg/ml after 2 days. Format: functional, organism-based.
A further assay has as its system Crocidolomia. Kind of assay: Insecticidal activity against second-instar larvae of Crocidolomia binotalis in cabbage leaf assessed as growth inhibition at 10 mg/ml after 2 days. Format: functional, organism-based.
The test system of another assay is Nephotettix cincticeps. Kind of assay: Insecticidal activity against 2nd-instar nymphs of Nephotettix cincticeps (green rice leafhopper) in rice seedlings assessed as lethality at 10 mg/ml after 1 week. It counts as functional, organism-based.
In a further assay the test system is Tetranychus urticae. Kind of assay: Insecticidal activity against adult of Tetranychus urticae (two-spotted spider mite) in kidney bean leaf assessed as egg hatching ability after 1 week. It counts as functional, organism-based.
For assay [5], the system named is Henosepilachna vigintioctopunctata. The assay is described as follows: Insecticidal activity against second-instar larvae of Henosepilachna vigintioctopunctata assessed as lethality at 10 mg/ml measured everyday for 1 week. It counts as functional, organism-based.
A further assay deals with Mamestra brassicae. Kind of assay: Insecticidal activity against third-instar larvae of Mamestra brassicae in cabbage leaf assessed as feeding deterrent and growth inhibition at 10 mg/ml after 2 days. It counts as functional, organism-based.

The source made the active and inactive calls. No cut-off for these calls is given here.

For `CCCCCCCCCCC(O)C1CCC(C2CCC(C(O)CCCCCCCC[C@H](O)CC3=C[C@@H](C)OC3=O)O2)O1` (stereo partly drawn) [ASIMICIN], the Activity was 100% in the assay with Callosobruchus chinensis [1], 85% in the assay on Callosobruchus chinensis [2], 60% in the assay with Callosobruchus chinensis [3] and 15% in the assay with Callosobruchus chinensis [4].
The matching figures for `CCCCCCCCCC[C@H](O)[C@H]1CC[C@H]([C@H]2CC[C@H]([C@H](O)CCCCCCCCCCCCC3=C[C@H](C)OC3=O)O2)O1` [BULLANIN]: 90%, 25%, 10% and 0%.
As for `CCCCCC[C@H](O)CCC[C@H](O)[C@H]1CC[C@H]([C@H]2CC[C@H]([C@H](O)CCCCCCCCCCCCC3=C[C@H](C)OC3=O)O2)O1` [SQUAMOCIN], the outcome (with Plutella xylostella; in the assay on Crocidolomia; with Nephotettix cincticeps; in assay [5]; in the assay on Mamestra brassicae) was Active. Also, the Activity in the assay on Callosobruchus chinensis [1] was 90%; in the assay on Callosobruchus chinensis [2], 29%; with Callosobruchus chinensis [3], 20%; in the assay with Callosobruchus chinensis [4], 0%. Also, the result in the assay on Tetranychus urticae was inactive.

(Values after ChEMBL document CHEMBL3045125, “Isolation and Insecticidal Activity of Three Acetogenins from Seeds of Pond Apple, Annona glabra L” (1991).)
